Assay results reported in patent US8551963B2, “Imidazolothiazole compounds and methods of use thereof” (Ambit Biosciences Corporation, priority 2008, dated 2013).
Values after ≈ are worked out from the molar mass of the structure shown. Values joined by “and” are separate entries in the source; they are usually repeats but may differ in a detail not shown here. Identical values can stand only once. “Also recorded” adds a separate entry of the source. Like-named read-outs stand apart in the source and are kept apart here.

Legend:
[1] = target: CYP1A2 (Homo sapiens (Human), UniProt P05177); assay: Cyp enzyme inhibition assay in human liver microsomes, CYP1A2; format: in vitro ADME; settings: CYP1A2, substrate phenacetin
Protocol: The ability of the compound I-1 to inhibit human metabolizing enzymes CYP3A4, CYP2C9, […], CYP2C19 and CYP1A2, was assessed using those enzymes found collectively in human liver microsomes. The test compound I-1 was prepared as a solution in DMSO or acetonitrile and plated in duplicate rows of a 96-well plate (Nunc) for a final assay concentration of 40 μM in 0.2% DMSO (or 2% acetonitrile) in the first column and serially diluted two-fold going down the row. A known selective inhibitor of a given CYP enzyme listed in Table 8 was selected as the appropriate positive control. For each CYP enzyme inhibition assay, an appropriate enzyme-substrate mixture was prepared to afford a final assay concentration of 75 mM KPO4/pH 7.4, 6.5 mM MgCl2, 0.25 mg/mL pooled male and female human liver microsome (CellzDirect lot HMMC-PL020) with the amounts of the appropriate substrate for each CYP enzyme assay given in Table 8. The enzyme-substrate mixture was added to columns 1 through 10 and column 11 served as a negative control with enzyme solution lacking substrate. A solution of NADPH (Calbiochem) was then added to all rows except for one where NADPH would be added after the incubation period, in order to detect NADPH-independent non-CYP-mediated metabolism. The plate was briefly vortexed and left to shake in a 37° C. water bath for 20 minutes. […]

[2] = Pharmacokinetic study in rats, intravenous and oral; format: in vivo; settings: rat
Protocol: Rats were dosed either intravenously at 1 mg/kg dose or orally at 10 mg/kg dose with Compound I-1. Blood samples were collected over a 24 hour time-course. The plasma was analyzed for Compound I-1 and the pharmacokinetic parameters were determined.
Pre-catheterized (jugular vein), male Sprague-Dawley rats (230-300 g) obtained from Charles River, Hollister, Calif., were acclimated at the vivarium of Rabbit and Rodent Diagnostic Associates (San Diego, Calif.) for at least three days following delivery and prior to entering a study. Rats were fasted overnight before intravenous or oral dosing. For intravenous dosing, Compound I-1 was dissolved in a 3:1 PEG400:H2O (Water For Injection) solution and administered at a dose of 1 mg/kg. For oral dosing, Compound I-1 was dissolved in a 22% hydroxypropyl-β-cyclodextrin (HPBCD) solution and administered at a dose of 10 mg/kg. Blood was collected at 5 (IV only), 15, 30 min, 1, 2, 4, 6, and 24 hr postdose using K3EDTA as anticoagulant and plasma was harvested for the analysis of Compound I-1.
Plasma samples, calibration standards and quality control samples (20 μL) were extracted with six volumes of acetonitrile containing an internal standard (25 ng/mL) and analyzed using LC-MS/MS analysis (API 3200). Sample separation was achieved on a Zorbax SB C8 column (5 μm, 4.6×50 mm) at a flow rate of 1.6 mL/min. The gradient program was from 5-95% acetonitrile in 0.05% formic acid over one minute. The mass transition from m/z 577.18 to 421.10 was monitored for Compound I-1. The internal standard mass transitions monitored were 483.0 to 317.2.
Pharmacokinetic parameters of Compound I-1 were calculated based on the plasma concentration-time profiles of each animal using the noncompartmental models in WinNonlin v5.2 (Pharsight, Mountain View, Calif.).

[3] = target: CYP2C19 (Homo sapiens (Human), UniProt P33261); assay: Inhibitory constant KI in human liver microsomes, CYP2C19; format: in vitro ADME; settings: for Ki: CYP2C19, global non-linear regression
Protocol: A 2 mM stock of Compound I-1 was prepared in acetonitrile (ACN) and serially diluted 2-fold from 2000 μM to 15.63 μM in ACN. […] Individual human liver microsome preparations containing the substrate were then incubated with Compound I-1 (final concentration range 40 μM to 0.31 μM of Compound I-1) for a final incubation concentration of 0.5 mg/mL microsome, 75 mM KPO4, 6.5 mM MgCl2, 1 mM NADPH and 2% acetonitrile (ACN). The samples were incubated in a 37° C. shaking water bath for 20 minutes then quenched with ACN:water (75:25) containing internal standards propranolol at 0.3 ng/mL and cortisone at 0.3 ng/mL. After brief mixing, the plate was centrifuged and the supernate removed for analysis by LC/MS/MS (API 4000 Qtrap) for formation of 6-hydroxy-testosterone (CYP3A4), 4-hydroxy-mephenyloin (CYP2C19) or hydroxy-taxol (CYP2C8). The data was analyzed using global non-linear regression software (GraphPad Prism) and the overall fit of the data (R^2) was used to determine if Compound I-1 was a competitive, non-competitive, or uncompetitive inhibitor. In addition the data was plotted as a Lineweaver-Burke graph (1/V versus 1/S, where V is the […] and S is the substrate concentration) for each inhibitor concentration. Based on the location of convergence (competitive and non-competitive) or non convergence (uncompetitive) of the plots at each inhibitor concentration, the type of inhibition was determined.
Global non-linear regression allows analysis of all the individual inhibitor curves simultaneously and determines the best fit value for shared parameters between the data sets, in this case KI (or KI′). The results of the global nonlinear analysis of Compound I-1 inhibition of the CYP450 isoforms 3A4, 2C19 and 2C8 are shown in Table 12.

[4] = Aqueous and surfactant solubility; format: physicochemical; settings: kinetic from dmso stock, room temperature overnight
Protocol: After equilibration at room temperature overnight the solutions were filtered and solute concentration determined by fast gradient HPLC without further dilution of the samples. […] These analytical standards were prepared from a 500 μM intermediate stock solution made by diluting 10 μl of the 10 mM sample stocks into 190 μl of 50:50 (v/v) acetonitrile/water. Aliquots of this solution were transferred in duplicate into a 96 well plate in the amounts of 0.4, 2, 4, 20, 40, and 100 μl with the volumes made up to 200 total μl with acetonitrile/water and the plate was then heat sealed with a foil sheet. Prior to sample filtration, filters were primed with 600 μl of sample to resolve potential adsorption problems. Both sample replicates were collected through the primed filter. Duplicate determinations were made in all cases.

[5] = test system: MDR1-MDCK cells; assay: Bidirectional MDR1-MDCK permeability, Compound I-1 as a substrate; settings: 5 μM, Surf.
Protocol: (§1) MDR1-MDCK cells were grown to confluence for 5-10 days on 1 μm filters in 24-well plate. Aliquots of DMSO solute stocks were diluted into Hank's balanced salt solution (HBSS) pH 7.4 containing 25 mM HEPES+−0.05% PS80 to give 0.5, 1.5 or 5.0 μM solute concentrations. Final concentrations of DMSO in the assayed samples ranged from 0.005% for the 0.5 μM concentration to 0.05% for the 5 μM concentration. […] The solute containing donor solutions were transferred to either the apical or basolateral chamber of the permeability diffusion apparatus. Receiver solutions consisted of Hank's balanced salt solution (HBSS) pH 7.4 containing 25 mM HEPES+0.05% PS80. The entire receiver solution was removed at 20 minute intervals and manually replaced with fresh buffer. The concentration of transported solute during each sampling interval was determined by HPLC/UV/MS. The standard curve was produced from serial dilutions of the dosing solution. D0 was a 50 μl aliquot of dosing solution from the donor well diluted with 450 μl of HBSS. The standard curve was produced from serial dilutions of the dosing solution (1:10, 1:25, 1:50, 1:100, 1:500 and 1:1000). Permeability coefficients were calculated for each sampling interval using the following equation:
(§2) [formula] Where VD=volume of donor (0.4 ml for Ap_Bl flux and 1.0 ml for Bl_Ap flux), A=surface area of the filter on which the monolayer was grown (0.31 cm2), MD(0)=mass in the donor at the beginning of the ith sampling interval, MR (t)=mass in the receiver at time t, and _t is the experimental interval (20 minutes). The apparent permeability, Papp, is then calculated as the average:
(§3) The average and standard deviation from the intervals is reported. Mass balance in the system was ascertained by comparing the sum of total transported solute and remaining donor solute with the starting mass of solute and is expressed as a percentage of donor solute at time zero. […] At the termination of the experiment, the cell monolayers are stored in the cold until the data is analyzed. After analysis, if mass balance falls below 70% in a given experiment, those monolayers are retrieved and extracted with acetonitrile. After separation of cellular debris, the extract is analyzed for recoverable solute of interest. […] All determinations were performed in duplicate.

[6] = test system: P-glycoprotein (MDR1); assay: as above; settings: dog, Surf.
Protocol: as §1, §2, §3

[7] = male, Sprague-Dawley, plasma, intravenous, 1 mg/kg
[8] = male, Sprague-Dawley, plasma, oral, 10 mg/kg

Sequence of CYP2C19 (P33261 whole entry): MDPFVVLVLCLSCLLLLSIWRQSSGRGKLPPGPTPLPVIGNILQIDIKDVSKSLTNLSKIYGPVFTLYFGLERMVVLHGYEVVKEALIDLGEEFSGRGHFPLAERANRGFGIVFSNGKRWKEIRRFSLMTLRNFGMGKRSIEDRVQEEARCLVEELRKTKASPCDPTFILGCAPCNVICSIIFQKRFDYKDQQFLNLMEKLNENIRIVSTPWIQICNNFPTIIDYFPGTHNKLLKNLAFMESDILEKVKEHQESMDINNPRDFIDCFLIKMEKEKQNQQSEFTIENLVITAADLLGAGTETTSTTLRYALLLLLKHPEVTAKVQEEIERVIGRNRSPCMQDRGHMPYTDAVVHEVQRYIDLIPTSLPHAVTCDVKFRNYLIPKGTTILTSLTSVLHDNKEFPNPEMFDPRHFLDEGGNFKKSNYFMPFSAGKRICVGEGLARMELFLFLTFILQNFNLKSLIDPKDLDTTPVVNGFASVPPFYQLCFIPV
Sequence of CYP1A2 (P05177 whole entry): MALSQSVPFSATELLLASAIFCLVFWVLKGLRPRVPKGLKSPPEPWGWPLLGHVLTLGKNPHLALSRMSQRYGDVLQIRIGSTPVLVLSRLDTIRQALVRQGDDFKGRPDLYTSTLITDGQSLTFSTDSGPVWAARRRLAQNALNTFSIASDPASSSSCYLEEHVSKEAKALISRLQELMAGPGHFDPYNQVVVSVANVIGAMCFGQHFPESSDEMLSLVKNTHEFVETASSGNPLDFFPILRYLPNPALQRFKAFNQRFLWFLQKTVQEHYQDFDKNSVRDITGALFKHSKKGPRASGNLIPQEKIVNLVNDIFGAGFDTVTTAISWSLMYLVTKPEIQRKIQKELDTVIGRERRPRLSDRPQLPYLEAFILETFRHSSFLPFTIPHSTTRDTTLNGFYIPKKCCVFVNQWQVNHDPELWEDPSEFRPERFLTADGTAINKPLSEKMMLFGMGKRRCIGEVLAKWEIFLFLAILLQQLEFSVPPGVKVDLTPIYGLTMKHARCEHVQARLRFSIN

For CC(C)(CO)c1cc(NC(=O)Nc2ccc(-c3cn4c(n3)sc3cc(OCCN5CCOCC5)ccc34)cc2)no1 [Compound I-1, 1-[5-(2-hydroxy-1,1-dimethyl-ethyl)-isoxazol-3-yl]-3-{4-[7-(2-morpholin-4-yl-ethoxy)-benzo[d]imidazo[2,1-b]thiazol-2-yl]-phenyl}-urea], the IC50 [1] was greater than 40 µM, the AUC(0-inf) [2, 7] was 3.29 µM·h and the Vd [2, 7] was 1.34 L/kg. For the same compound, the clearance [2, 7] was 8.83 mL/min/kg, the half-life [2, 7] was 3.4 h and the AUC(0-inf) [2, 8] was 2.27 µM·h. It also gave a Cmax [2, 8] of 360 nM, a Tmax [2, 8] of 1.2 h and a half-life [2, 8] of 3.7 h. The bioavailability ([2]; male, Sprague-Dawley, plasma, oral, 10 mg/kg, calculated with the dose normalized AUC0-inf IV data, read-out: F (absolute bioavailability)) was 6.9%, the T1/2 ([2]; intravenous, 1 mg/kg) was 3.4 h and the Type of inhibition ([3]; CYP2C19) was “non-competitive inhibition; also recorded: weak non-competitive inhibitor”. It also gave a Ki ([3]; read-out: Best Fit KI, Competitive) of 1.7 µM, a Ki ([3]; read-out: Best Fit KI, Non-competitive) of 10.4 µM and a Ki ([3]; read-out: Best Fit KI′, Uncompetitive) of 7.4 µM. For the same compound, the solubility ([4]; HBSS buffer with 0.05% Polysorbate 80, pH 7.4, aqueous with cosolvent or surfactant or cyclodextrin, HBSS containing 0.05% Polysorbate 80, 2.5% DMSO, read-out: Average Aqueous Solubility, 0.05% Polysorbate 80) was 2 µM (≈ 1.15 µg/mL), the solubility ([4]; Hank's balanced salt solution (HBSS) buffer, aqueous buffer, HBSS pH 7.4, 2.5% DMSO, read-out: Average Aqueous Solubility, pH 7.4) was less than 1 µM and the “Assymetry Index” value [5] was 1.7. For the same compound, the PeAP→BL [5] was 2.81 ×10⁻⁶ cm/s, the PeBL→AP [5] was 6.31 ×10⁻⁶ cm/s and 4.67 ×10⁻⁶ cm/s and the efflux ratio at 5 μM ([6]; MDCK-MDR1, pH 7.4, Assymetry Index) was 1.2. For the same compound, the Papp A→B at 5 μM ([6]; MDCK-MDR1, pH 7.4, PeAP→BL) was 5.1 ×10⁻⁶ cm/s.
